Data reported in PubChem BioAssay AID248 (DTP/NCI, 2004).
Values joined by “and” are separate entries in the source; they are usually repeats but may differ in a detail not shown here. Equal values may be shown once. Inconclusive results and toxic doses are left out. No stated cut-off is given here; in the data, active means T/C of 150% or more; inactive means T/C below 125%.

Tested on: L1210 leukemia ip in BDF1 mice, survival T/C
Assay: NCI In Vivo Anticancer Drug Screen. Data for tumor model L1210 Leukemia (intraperitoneal) in B6D2F1 (BDF1) mice
Settings: endpoint: mean survival time, higher = longer survival
Summary of the method: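 Tumor cells were implanted, animals were treated, and survival was followed. The result divides the treated measurement by the vehicle-control measurement.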

[1] = dose: 100.0 mg/kg/injection, schedule: Q04DX003 (ip), vehicle: saline with Tween-80
[2] = dose: 200.0 mg/kg/injection, schedule: Q04DX003 (ip), vehicle: saline with Tween-80
[3] = dose: 100.0 mg/kg/injection, schedule: Q01DX009 (ip), vehicle: Klucel (hydroxypropylcellulose) (HPC)
[4] = dose: 200.0 mg/kg/injection, schedule: Q01DX009 (ip), vehicle: Klucel (hydroxypropylcellulose) (HPC)
[5] = dose: 100.0 mg/kg/injection, schedule: Q01DX001 (ip), vehicle: saline
[6] = dose: 200.0 mg/kg/injection, schedule: Q01DX001 (ip), vehicle: saline
[7] = dose: 400.0 mg/kg/injection, schedule: Q01DX001 (ip), vehicle: saline
[8] = dose: 25.0 mg/kg/injection, schedule: Q04DX002 (ip), vehicle: Klucel (hydroxypropylcellulose) (HPC)
[9] = dose: 50.0 mg/kg/injection, schedule: Q04DX002 (ip), vehicle: Klucel (hydroxypropylcellulose) (HPC)
[10] = dose: 100.0 mg/kg/injection, schedule: Q04DX002 (ip), vehicle: Klucel (hydroxypropylcellulose) (HPC)
[11] = dose: 200.0 mg/kg/injection, schedule: Q04DX002 (ip), vehicle: Klucel (hydroxypropylcellulose) (HPC)
[12] = dose: 400.0 mg/kg/injection, schedule: Q04DX002 (ip), vehicle: Klucel (hydroxypropylcellulose) (HPC)
[13] = dose: 100.0 mg/kg/injection, schedule: Q01DX009 (ip), vehicle: saline
[14] = dose: 200.0 mg/kg/injection, schedule: Q01DX009 (ip), vehicle: saline
[15] = dose: 400.0 mg/kg/injection, schedule: Q01DX009 (ip), vehicle: saline
[16] = dose: 50.0 mg/kg/injection, schedule: Q01DX009 (ip), vehicle: saline
[17] = dose: 100.0 mg/kg/injection, schedule: Q04DX003 (ip), vehicle: saline
[18] = dose: 200.0 mg/kg/injection, schedule: Q04DX003 (ip), vehicle: saline

Measured: T/C

CS(=O)(=O)N1C=CC=CC=C1
inactive: dose: 12.5 mg/kg/injection, schedule: Q01DX009 (ip), vehicle: Klucel (hydroxypropylcellulose) (HPC) 91 % of control | dose: 12.5 mg/kg/injection, schedule: Q04DX003 (ip), vehicle: Klucel (hydroxypropylcellulose) (HPC) 96 % of control | dose: 25.0 mg/kg/injection, schedule: Q01DX009 (ip), vehicle: Klucel (hydroxypropylcellulose) (HPC) 95 % of control | dose: 25.0 mg/kg/injection, schedule: Q04DX003 (ip), vehicle: Klucel (hydroxypropylcellulose) (HPC) 98 % of control | dose: 50.0 mg/kg/injection, schedule: Q01DX009 (ip), vehicle: Klucel (hydroxypropylcellulose) (HPC) 95 % of control | dose: 50.0 mg/kg/injection, schedule: Q04DX003 (ip), vehicle: Klucel (hydroxypropylcellulose) (HPC) 105 % of control

CCC(C)NC(=O)/C=C/C(=O)NC(C)CC (configuration not stated)
inactive: [1] 91 % of control | [2] 100 % of control | dose: 400.0 mg/kg/injection, schedule: Q04DX003 (ip), vehicle: saline with Tween-80 100 % of control

Cc1cc(C(=O)O)c(C)n1-c1cccc2ccccc12
inactive: dose: 75.0 mg/kg/injection, schedule: Q04DX003 (ip), vehicle: Klucel (hydroxypropylcellulose) (HPC) 98 % of control | [3] 102 % of control | dose: 150.0 mg/kg/injection, schedule: Q04DX003 (ip), vehicle: Klucel (hydroxypropylcellulose) (HPC) 98 % of control | [4] 108 % of control | dose: 300.0 mg/kg/injection, schedule: Q04DX003 (ip), vehicle: Klucel (hydroxypropylcellulose) (HPC) 97 % of control | dose: 400.0 mg/kg/injection, schedule: Q01DX009 (ip), vehicle: Klucel (hydroxypropylcellulose) (HPC) 113 % of control

O=C(NCCN1CCCC1)NC1CCCCC1
inactive: [3] 101 % of control | [4] 98 % of control

COc1cc(C(=O)C[n+]2ccccc2)ccc1O
inactive: [1] 93 % of control | [2] 93 % of control

c1ccc([C@H]2CN3CCSC3=N2)cc1
inactive: dose: 0.15 mg/kg/injection, schedule: Q01DX009 (ip), vehicle: saline 94 % of control | dose: 0.31 mg/kg/injection, schedule: Q01DX009 (ip), vehicle: saline 91 % of control | dose: 0.63 mg/kg/injection, schedule: Q01DX009 (ip), vehicle: saline 105 % of control | dose: 1.25 mg/kg/injection, schedule: Q01DX009 (ip), vehicle: saline 96 % of control | dose: 2.5 mg/kg/injection, schedule: Q01DX009 (ip), vehicle: saline 98 % of control | dose: 5.0 mg/kg/injection, schedule: Q01DX009 (ip), vehicle: saline 109 % of control | dose: 10.0 mg/kg/injection, schedule: Q01DX009 (ip), vehicle: saline 93 % of control | dose: 20.0 mg/kg/injection, schedule: Q01DX009 (ip), vehicle: saline 94 % of control

NC(=O)NNC1=CC(=O)CCO1
inactive: [5] 107 % of control | [6] 106 % of control | [7] 104 % of control

CCN(CCCl)CC1C(c2ccccc2)C1c1ccccc1 (configuration not stated)
inactive: [8] 94 % of control | [9] 87 % of control

CCCNC(=O)c1ccc(N)cc1
inactive: [5] 104 % of control | [6] 97 % of control | [7] 97 % of control

O=C(COc1ccc(Cl)cc1C(=O)O)NCc1ccc(NC(=O)Nc2ccc(S(=O)(=O)F)cc2Cl)cc1
inactive: dose: 100.0 mg/kg/injection, schedule: Q01DX001 (ip), vehicle: Klucel (hydroxypropylcellulose) (HPC) 102 % of control | dose: 200.0 mg/kg/injection, schedule: Q01DX001 (ip), vehicle: Klucel (hydroxypropylcellulose) (HPC) 93 % of control | dose: 400.0 mg/kg/injection, schedule: Q01DX001 (ip), vehicle: Klucel (hydroxypropylcellulose) (HPC) 89 % of control

COCc1c(COc2ccc(Cl)cc2)n(C)c2ccccc12
inactive: [10] 101 % of control | [11] 92 % of control | [12] 99 % of control

NNc1cc(=O)n2ccccc2n1
inactive: dose: 100.0 mg/kg/injection, schedule: Q01DX001 (ip), vehicle: carboxymethylcellulose (CMC) 98 % of control | dose: 200.0 mg/kg/injection, schedule: Q01DX001 (ip), vehicle: carboxymethylcellulose (CMC) 98 % of control | dose: 400.0 mg/kg/injection, schedule: Q01DX001 (ip), vehicle: carboxymethylcellulose (CMC) 101 % of control

NC1CC=CCC1c1ccc2c(c1)OCO2 (configuration not stated)
inactive: dose: 75.0 mg/kg/injection, schedule: Q01DX001 (ip), vehicle: saline 100 % of control | dose: 150.0 mg/kg/injection, schedule: Q01DX001 (ip), vehicle: saline 92 % of control

CC12CCC(=O)C=C1CCC1C2C(O)CC2(C)C1CCC2(O)C(=O)CSc1ccc(N(CCCl)CCCl)cc1 (configuration not stated)
inactive: dose: 100.0 mg/kg/injection, schedule: Q01DX001 (sc), vehicle: steriod suspending solution 92 % of control | dose: 200.0 mg/kg/injection, schedule: Q01DX001 (sc), vehicle: steriod suspending solution 100 % of control | dose: 400.0 mg/kg/injection, schedule: Q01DX001 (sc), vehicle: steriod suspending solution 103 % of control

COc1ccc(C(C)=O)c(OC)c1
inactive: [5] 98 % of control | [13] 112 % of control | [6] 98 % of control | [14] 94 % of control | [7] 98 % of control | [15] 102 % of control

CCN(CC)CCOC(=O)c1ccco1
inactive: [16] 96 % of control | [13] 103 % of control | [14] 100 % of control

CC(C)(C)NCC1C(c2ccccc2)C1c1ccccc1 (configuration not stated)
inactive: [8] 92 % of control | [9] 88 % of control

CCN(CC)Cc1cc(Nc2c3ccc([N+](=O)[O-])cc3nc3ccc(OC)cc23)ccc1O
inactive: [16] 95 % of control | [13] 98 % of control and 100 % of control | [17] 95 % of control | [14] 95 % of control and 109 % of control | [18] 95 % of control | [15] 97 % of control | dose: 400.0 mg/kg/injection, schedule: Q04DX003 (ip), vehicle: saline 90 % of control

C[N+]1(C)C2CC(=O)CC1C1CC12 (configuration not stated)
inactive: [16] 91 % of control | [13] 93 % of control | [17] 100 % of control | [14] 88 % of control | [18] 103 % of control

CC(CNCCN)C[Si](C)(C)C (configuration not stated)
inactive: dose: 4.0 mg/kg/injection, schedule: Q01DX015 (ip), vehicle: saline 101 % of control | dose: 6.25 mg/kg/injection, schedule: Q04DX003 (ip), vehicle: saline sonified 101 % of control | dose: 8.0 mg/kg/injection, schedule: Q01DX015 (ip), vehicle: saline 96 % of control | dose: 12.5 mg/kg/injection, schedule: Q04DX003 (ip), vehicle: saline sonified 97 % of control | dose: 16.0 mg/kg/injection, schedule: Q01DX015 (ip), vehicle: saline 102 % of control | dose: 25.0 mg/kg/injection, schedule: Q04DX003 (ip), vehicle: saline sonified 97 % of control | dose: 32.0 mg/kg/injection, schedule: Q01DX015 (ip), vehicle: saline 96 % of control

Cc1ccc([N+](=O)[O-])cc1NC(=O)Nc1cccc(Cl)c1Cl
inactive: [10] 86 % of control | [11] 96 % of control | [12] 90 % of control
